Results from US10351594B2, “Process for preparing compounds having triple activities of thrombolysis, antithrombosis, and radical scavenging” (Shanghai Lumosa Therapeutics Co., Ltd., priority 2013, dated 2019).
Marks after values point to notes of the source that are not given here.

System: formation of thrombus (rat arteriovenous bypass)
Assay: Antithrombotic activity via intravenous administration, rat arteriovenous bypass cannula with thread
Assay type: in vivo, male SD rats
Details: n = 10

`C[C@H](NC(=O)[C@@H]1CCCN1)C(=O)N[C@@H](CCCCN)C(=O)NCCCC[C@H](NC(=O)[C@@H]1Cc2cc(O)c(O)cc2C(C)(C)N1)C(=O)O` [Compound 5Ak, 3S-6,7-dihydroxy-1,1-dimethyl-1,2,3,4-tetrahydro-isoquinoline-3-acyl-Lys(Pro-Ala-Lys)] was tested, and the “wet weight of thrombus” value (Table 4, 5Ak 0.001 nmol/kg i.v.) was 61.91 ± 3.27^c mg and the “wet weight of thrombus” value (Table 4, 5Ak 0.01 nmol/kg i.v.) was 57.34 ± 3.73^b mg.
